Laboratory results taken from article PMC7557147 (Biochemical Journal, 2020).

Columns and labels:
[1] = target: T1, TgAPN2 (Toxoplasma gondii, UniProt S8G5K8, N1303Q/N840Q); assay type: biochemical, Toxoplasma gondii ME49; conditions: relative to hArg = 100%; 10 µM ACC substrate, 0.5 nM enzyme
[2] = target: T1, TgAPN2; test: TgAPN2 aminopeptidase activity under chelating conditions; assay type: biochemical, Toxoplasma gondii ME49; conditions: increasing EDTA concentration (0–200 mM); 20 nM enzyme, 15 µM substrate
[3] = target: T1, TgAPN2; test: Michaelis-Menten kinetics of TgAPN2 with fluorogenic Mec substrates; assay type: biochemical, Toxoplasma gondii ME49; conditions: substrate of TgAPN2, 20 nM enzyme, 37°C, pH 8.0
[4] = test system: recombinant TgAPN2; conditions: ref [14]; cited from earlier work

With `N=C(N)NCCC[C@H](N)C(=O)O` [Arg] the “normalised relative activity of TgAPN2 toward P1 substrate” value (“normalised relative activity” for short) [1] was 81%.

For `O=C(O)CN(CCN(CC(=O)O)CC(=O)O)CC(=O)O` [EDTA], the “effect on TgAPN2 enzyme velocity” value [2] was “reduction in enzyme velocity”.

Work on `Cc1cc(=O)oc2cc(NC(=O)[C@@H](N)CCCNC(=N)N)ccc12.Cl` [L-Arg-Mec, L-arginine-7-amido-4-methylcoumarin hydrochloride] yielded a Km [3] of 148 ± 5.1 µM, a kcat [3] of 1017 ± 15.2 s⁻¹ and a kcat ([3]; listed as Arg-Mec) of 1017 s⁻¹.

Compound `Cc1cc(=O)oc2cc(NC(=O)[C@@H](N)CC(C)C)ccc12.Cl` [L-Leu-Mec, L-leucine-7-amido-4-methylcoumarin hydrochloride] has a Km [3] of 31.8 ± 3 µM, a kcat [3] of 1.32 ± 0.03 s⁻¹ and a kcat ([3]; listed as Leu-Mec) of 1.32 s⁻¹.

With `CC(C)C[C@H](N)C(=O)O` [Leu] the “normalised relative activity” value [1] was 26%.

In the case of `NCCCC[C@H](N)C(=O)O` [Lys], the “normalised relative activity” value [1] is reported as 52%.

For `CC(C)C[C@@H](N)[C@H](O)C(=O)N[C@H](C(=O)N[C@H](C(=O)N[C@@H](CC(=O)O)C(=O)O)C(C)C)C(C)C` [amastatin], the “inhibition of recombinant TgAPN2 (in words)” value [4] is listed as “inhibited”.

In the case of `CC(C)C[C@H](NC(=O)[C@@H](O)[C@H](N)Cc1ccccc1)C(=O)O` [bestatin], the “inhibition of recombinant TgAPN2 (in words)” value [4] is given as “inhibited”.

In the case of `NC(N)=NCCCC[C@H](N)C(=O)O` [hArg, Homo-arginine], the “normalised relative activity” value [1] is reported as 100%.

With `N[C@@H](CCc1ccccc1)C(=O)O` [hPhe] the “normalised relative activity” value [1] was 18%.

For `N[C@@H](CCc1ccc(O)cc1)C(=O)O` [hTyr], the “normalised relative activity” value [1] was 54%.
